Experimental data published in patent publication US12697328B2, “Methods for treating metastasis with cathepsin C inhibitors” (Shanghai Institute of Nutrition and Health, Chinese Academy …, priority 2020, dated 2026).

Tests used:
murine neutrophils = assay: Reactive oxygen species (ROS) analysis of neutrophils pre-treated with 4T07 conditioned medium; assay type: cell-based; conditions: 4T07 CM with CTSC overexpressed, inhibitors 10 μM, FIGS. 8C, 8E
Procedure: To measure the ROS levels, neutrophils were cultured in cancer cell CM or non-conditioned medium, and treated with DMSO or various inhibitors, including Sivelestat (10 μM), BAY11-7082 (10 μM) and SB203580 (10 μM) for 1 h at 37° C. Cells were then harvested and resuspended in assay buffer (PBS, 4 mM EGTA, pH 7.4, containing 10 μM CM-H2DCFDA, Invitrogen), incubated for 15 min at 37° C. in dark, washed with pre-chilled PBS, followed by FACS analysis within 30 min.
The release of reactive oxygen species (ROS) by neutrophils is known to induce NET formation. […] Commum. 6, 6673 (2015).
ROS analysis of murine neutrophils pre-treated with 4T07 conditioned medium show increased ROS production results from CTSC overexpression (FIG. 8E).

IL-1β = IL-1β secretion of neutrophils pre-treated with CM of SCP28 cancer cells (ELISA); assay type: cell-based; conditions: human neutrophils pre-treated with CM of SCP28 with CTSC overexpressed; FIG. 7H
Procedure: ELISA kits were used to assay the levels of human IL-1β (88-7621-88, ThermoFisher), mouse IL-1β (432604, Biolegend), mouse IL6 (88-7064-88, ThermoFisher), mouse CCL3 (88-56013-88, ThermoFisher) in cell culture supernatants or sera according to the manufacturer's instruction. Briefly, 96-well MaxiSorp™ ELISA Plates (44-2404, ThermoFisher) was coated with capture antibody overnight at 4° C. in coating buffer (15 mM of Na2CO3, 35 mM of NaHCO3, at pH 9.6). After three washes in PBS, the wells were blocked with 5% BSA in PBS for 45 min at room temperature. Then, 100 μl of cell culture supernatants or sera and standard samples were added into the wells and incubated for 2 h at room temperature, and the plates were washed three times with washing buffer (1% BSA, 0.05% Tween-20 in PBS). Next, biotin-conjugated detection antibody in 2.5% BSA was added into the wells and incubated for 2 h at room temperature. After three washes with washing buffer, HRP-streptavidin was incubated for 45 min at room temperature. Then, signals were detected using TMB solution and read at 450 nm.

lung cancer cells A549 = assay: NET-promoted tumor sphere formation, lung cancer; assay type: cell-based; conditions: neutrophil medium, CM with or without brensocatib, FIG. 11L
Procedure: (§1) To test the therapeutic effects of brensocatib in different cancer types in vitro, the ability of brensocatib to inhibit NET-promoted tumor sphere formation is investigated. The neutrophils are cultured with conditioned medium from tumor cells of colon cancer, liver cancer, lung cancer, gastric cancer and pancreatic cancer with or without brensocatib treatment to activate NETosis, and then the neutrophil medium was used in tumor sphere formation of these cancer cells to analyze the effect of neutrophil medium to facilitate tumor cell growth. The amount of tumorsphere in each sample is then determined by imaging.

[1] = system: CTSC-overexpressing AT3 cancer cells; assay: Brensocatib treatment of mice after orthotopic injection of CTSC-overexpressing AT3 cancer cells; assay type: in vivo, C57/BL6 mice; conditions: brensocatib 5 mg/kg orally twice daily
Procedure: Female BALB/c and athymic mice aged 6-10 weeks were used in all animal experiments. […] For EdU labeling assays, nude mice were intravenously injected with 2×10^5 cancer cells, followed by intraperitoneal (i.p.) injection of 100 ng/mouse EdU (ThermoFisher, C10640) 24 h before lung harvest. […] For Sivelestat or DNase I treatment, mice were i.p. injected with Sivelestat (50 mg/kg) or DNase I (5 mg/kg) 2 h before cancer cell injection, followed by daily injection of the reagents for 9 days, and then maintenance shots twice a week. For GSK484 treatment, mice were treated with GSK484 (20 mg/kg, i.p. daily shots for 20 days from day 7, and then maintenance shots every two days) following orthotopic injection of AT3 or 4T07 cells. For IL-1b blocking or IL6R/CCR1 inhibition assays, mice were orthotopically inoculated with 5×10^4 AT3 and treated with i.p. administration of IgG or the IL-1β blocking antibody (100 μg per mouse), or the IL6R blocking antibody (100 μg per mouse) and the CCR1 inhibitor BX471 (20 mg/kg), every two days from day 7 until the mice were sacrificed. For brensocatib treatment, BALB/c mice were orthotopically inoculated with 1×10^5 4T1 cells, and C57/BL6 mice were orthotopically inoculated with 2×10^5 AT3. Vehicle controls (0.5% HPMC, 0.1% Tween 80 in 0.1 M citrate buffer, pH 3) and brensocatib (5 mg/kg) were administered orally twice daily until the mice were sacrificed. Orthotopic tumors were surgically removed at the size of about 1 cm^3. […] For TSP-1 degradation assays, mice were i.p. injected with GSK484 (20 mg/kg) 2 h before cancer cell injection and followed by daily treatment. Then, the lungs were perfused with 50 ml of pre-chilled PBS through the right ventricle until they were cleared of blood at 72 h post injection of 3×10^6 AT3 or 4T07 cells. BLI was acquired with NightOWL II LB983 Imaging System (Bert-hold) and IVIS Spectrum CT (PerkinElmer). All animal studies were conducted according to the guidelines for the care and use of laboratory animals and were approved by the Institutional Animal Care and Use Committee of Shanghai Institute of Nutrition and Health.

gastric cancer cells AGS = assay: NET-promoted tumor sphere formation, gastric cancer; assay type: cell-based; conditions: neutrophil medium, CM with or without brensocatib, FIG. 11M
Procedure: as §1

[2] = system: liver-metastatic breast cancer cell SCP16; assay: Tumor sphere formation of liver-metastatic breast cancer cells in neutrophil medium; assay type: cell-based; conditions: neutrophils cultured with cancer cell CM with or without brensocatib, FIG. 11H
Procedure: The neutrophils are cultured with conditioned medium from the cancer cells with or without brensocatib treatment to activate NETosis, and then the neutrophil medium was used in tumor sphere formation of bone and liver-metastatic breast cancer cells to analyze the effect of neutrophil medium to facilitate tumor cell growth. The data are shown in FIG. 11E for bone-metastatic breast cancer cell SCP2 and FIG. 11H for liver-metastatic breast cancer cell SCP16.

liver cancer cells HUH7 = assay: Mouse xenograft, liver tumor cells by spleen injection; assay type: in vivo; conditions: nude mice
Procedure: A series of mouse xenograft studies are conducted by injecting liver and pancreatic tumor cells into nude mice by spleen injection. Then the mice are treated by brensocatib, and the growth of the tumors in liver is observed.

| SMILES | ROS production / ROS levels (murine neutrophils) | IL-1β levels (secretion) of neutrophils (IL-1β) | NET-promoted tumor sphere formation (in vitro tumor growth) (lung cancer cells A549) | survival rate ([1]; FIG. 10J) | circulating levels of IL-1β ([1]; FIG. 10K) | circulating NETs ([1]; FIGS. 10G-I) | lung metastases ([1]; FIGS. 10G-I) | lung metastatic nodule formation ([1]; FIGS. 10G-I) | neutrophil migration ([1]; FIGS. 10G-I) | NET-promoted tumor sphere formation (in vitro tumor growth) (gastric cancer cells AGS) | capability of drug-treated neutrophils to facilitate tumor cell growth (tumor sphere formation) [2] | formation of liver surface nodules (liver cancer cells HUH7; spleen injection of HUH7, FIG. 12B) | tumor growth of liver cancer cells HUH7 in liver (liver cancer cells HUH7; spleen injection, FIG. 12A) |
| --- | --- | --- | --- | --- | --- | --- | --- | --- | --- | --- | --- | --- | --- |
| CC(C)(C)C(=O)Oc1ccc(S(=O)(=O)Nc2ccccc2C(=O)NCC(=O)O)cc1 [Silvelestat] | blocks | reduces |  |  |  |  |  |  |  |  |  |  |  |
| Cn1c(=O)oc2ccc(-c3ccc(C[C@@H](C#N)NC(=O)[C@@H]4CNCCCO4)cc3)cc21 [brensocatib, (2S)—N-{(1S)-1-cyano-2-[4-(3-methyl-2-oxo-2,3-dihydro-1,3-benzoxazol-5-yl)phenyl]ethyl}-1,4-oxazepane-2-carboxamide] |  |  | inhibit in vitro tumor growth | significant increase | decrease | Decreases | Decreases | Decreases | Decreases | inhibit in vitro tumor growth | significantly weakened | suppresses | significantly inhibits tumor growth |
